Molecular target: T1, human plasma protein factor Xa (Homo sapiens, UniProt P00742)
T1 construct: measure proteolytic activity of the enzyme (factor Xa); purchased Haematologic Technologies (Essex Junction, Vt.); host or cells: human plasma
Experiment: Factor Xa IC50 determination: cleavage of paranitroanilide substrate S-2765 in 96-well plates
Type: biochemical
Conditions: fXa 1 nM, S-2765 100 μM, Tris buffered saline pH 7.4, room temperature
Outline: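 Initial rates of S-2765 (100 μM final) cleavage, read at 405 nm for 2 min, fitted with a four-parameter equation to give IC50. Enzyme: 1 nM human plasma fXa, 5 min room-temperature preincubation with inhibitor (0.01 nM–10 μM) in 20 mM Tris, 150 mM NaCl, 5 mM CaCl2, 0.1% BSA, 5% DMSO, pH 7.4; duplicates.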

T1 sequence (P00742 235-488 limits assumed): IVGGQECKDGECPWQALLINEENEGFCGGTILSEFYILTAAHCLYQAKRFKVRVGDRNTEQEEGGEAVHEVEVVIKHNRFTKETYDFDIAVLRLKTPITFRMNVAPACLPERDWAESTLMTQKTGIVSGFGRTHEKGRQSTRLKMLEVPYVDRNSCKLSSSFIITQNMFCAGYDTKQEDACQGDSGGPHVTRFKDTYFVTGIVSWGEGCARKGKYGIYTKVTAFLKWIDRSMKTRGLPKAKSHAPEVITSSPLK
T1 sequence (P00742 41-179 partner limits assumed): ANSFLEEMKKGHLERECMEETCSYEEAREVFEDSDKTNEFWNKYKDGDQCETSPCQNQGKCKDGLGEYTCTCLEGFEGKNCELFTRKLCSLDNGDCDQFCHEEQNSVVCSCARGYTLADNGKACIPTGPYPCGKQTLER

Row | Compound | IC50 [nM]
1 | CN(C)C(=N)c1ccc(-c2cc(CNC(=O)c3ccc(Cl)s3)ccc2F)cc1 [Example 377, N-((3-(4-(N,N-Dimethylcarbamimidoyl)phenyl)-4-fluorophenyl)methyl)-5-chlorothiophene-2-carboxamide] | ≤ 100
2 | N=C(c1ccc(-c2cc(CNC(=O)c3ccc(Cl)s3)on2)c(F)c1)N1CCCC1 [Example 71, 5-Chloro-thiophene-2-carboxylic acid {3-[2-fluoro-4-(imino-pyrrolidin-1-yl-methyl)-phenyl]-isoxazol-5-ylmethyl}-amide] | ≤ 100
3 | O=C(NCC1CC(c2ccc(C(=O)N3CC=CC3)cc2)=NO1)c1ccc(Cl)s1 (centres unmarked) [Example 397, 5-Chloro-N-((3-(4-(2,5-dihydro-1H-pyrrole-1-carbonyl)phenyl)-4,5-dihydroisoxazol-5-yl)methyl)thiophene-2-carboxamide] | ≤ 100
4 | COCCN(C)Cc1ccccc1-c1ccc(C2=NOC(CNC(=O)c3ccc(Cl)s3)C2)cc1 (centres unmarked) [Example 198, 5-Chloro-thiophene-2-carboxylic acid [3-(2′-{[(2-methoxy-ethyl)-methyl-amino]-methyl}-biphenyl-4-yl) 4,5-dihydro-isoxazol-5-ylmethyl]-amide] | ≤ 100
5 | O=C(NCc1cc(C2CCNCC2)no1)c1ccc(Cl)s1 [Example 176, 5-Chloro-thiophene-2-carboxylic acid (3-piperidin-4-yl-isoxazol-5-ylmethyl)-amide] | ≥ 500
6 | O=C(NCC1CC(c2ccc(-c3cc(Cl)ccc3CN3CCCC3)cc2)=NO1)c1ccc(Cl)s1 (centres unmarked) [Example 205, 5-Chloro-thiophene-2-carboxylic acid [3-(5′-chloro-2′-pyrrolidin-1-ylmethyl-biphenyl-4-yl)-4,5-dihydro-isoxazol-5-ylmethyl]-amide] | ≤ 100
7 | CN(C)c1cc(C(=N)N2CCCC2)ccc1C1=NOC(CNC(=O)c2ccc(Cl)s2)C1 (centres unmarked) [Example 76, 5-Chloro-thiophene-2-carboxylic acid {3-[2-dimethylamino-4-(imino-pyrrolidin-1-yl-methyl)-phenyl]-4,5-dihydro-isoxazol-5-ylmethyl}-amide] | 100 to 500
8 | O=C(NCc1cc(-c2ccc(Nc3ccccn3)cc2)no1)c1ccc(Cl)s1 [Example 252, 5-Chloro-thiophene-2-carboxylic acid {3-[4-(pyridin-2-ylamino)-phenyl]-isoxazol-5-ylmethyl}-amide] | ≥ 500
9 | CCCN(C)C(=N)c1ccc(-c2cc(CNC(=O)c3ccc(Cl)s3)on2)cc1 [Example 29, 5-Chloro-thiophene-2-carboxylic acid {3-[4-(N-methyl-N-propyl-carbamimidoyl)-phenyl]-isoxazol-5-ylmethyl}-amide] | ≤ 100
10 | O=C(NCc1cc(-c2ccc(Nc3cccnc3)cc2)no1)c1ccc(Cl)s1 [Example 253, 5-Chloro-thiophene-2-carboxylic acid {3-[4-(pyridin-3-ylamino)-phenyl]-isoxazol-5-ylmethyl}-amide] | ≤ 100
11 | O=C(NCc1cc(-c2ccc(-c3cccnc3)cc2)no1)c1ccc(Cl)s1 [Example 192, 5-Chloro-thiophene-2-carboxylic acid [3-(4-pyridin-3-yl-phenyl)-isoxazol-5-ylmethyl]-amide] | ≥ 500
12 | COCc1ccccc1-c1ccc(-c2cc(CNC(=O)c3ccc(Cl)s3)on2)cc1 [Example 189, 5-Chloro-thiophene-2-carboxylic acid [3-(2′-methoxymethyl-biphenyl-4-yl)-isoxazol-5-ylmethyl]-amide] | 100 to 500
13 | COC[C@H]1CCCN1C(=O)c1ccc(C2=NOC(CNC(=O)c3ccc(Cl)s3)C2)cc1 (some centres unmarked) [Example 398] | 100 to 500
14 | N=C(c1ccc(-c2noc(CNC(=O)c3ccc(Cl)s3)n2)cc1)N1CCCC1 [Example 336, 5-Chloro-N-((3-(4-(imino(pyrrolidin-1-yl)methyl)phenyl)-1,2,4-oxadiazol-5-yl)methyl)thiophene-2-carboxamide] | ≤ 100
15 | N#Cc1ccc(-c2cc(CNC(=O)c3ccc(Cl)s3)on2)cc1 [Example 20, 5-Chloro-thiophene-2-carboxylic acid [3-(4-cyano-phenyl)-isoxazol-5-ylmethyl]-amide] | ≤ 100
16 | CN(C)Cc1ccc(-c2cccc(C3=NOC(CNC(=O)c4ccc(Cl)s4)C3)c2)cc1 (centres unmarked) [Example 266, 5-Chloro-thiophene-2-carboxylic acid [3-(4′-dimethylaminomethyl-biphenyl-3-yl)-4,5-dihydro-isoxazol-5-ylmethyl]-amide] | ≥ 500
17 | Cc1ccc(=O)n(-c2ccc(C3=NOC(CNC(=O)c4ccc(Cl)s4)C3)cc2)c1 (centres unmarked) [Example 285, 5-Chloro-N-((3-(4-(5-methyl-2-oxopyridin-1(2H)-yl)phenyl)-4,5-dihydroisoxazol-5-yl)methyl)thiophene-2-carboxamide] | ≤ 100
18 | CN(C)c1cc(C(=N)N2CCCCC2)ccc1-c1cc(CNC(=O)c2ccc(Cl)s2)on1 [Example 97, 5-Chloro-thiophene-2-carboxylic acid {3-[2-dimethylamino-4-(imino-piperidin-1-yl-methyl)-phenyl]-isoxazol-5-ylmethyl}-amide] | ≤ 100

Row | Compound | IC50 [nM]
19 | O=C(NCc1cc(-c2ccc(NCc3ccccc3)cc2)no1)c1ccc(Cl)s1 [Example 258, 5-Chloro-thiophene-2-carboxylic acid [3-(4-benzylamino-phenyl)-isoxazol-5-ylmethyl]-amide] | ≥ 500
20 | N=C(c1ccc(-n2cc(CNC(=O)c3ccc(Cl)s3)nn2)c(F)c1)N1CCCC1 [Example 322, 5-Chloro-N-((1-(2-fluoro-4-(imino(pyrrolidin-1-yl)methyl)phenyl)-1H-1,2,3-triazol-4-yl)methyl)thiophene-2-carboxamide] | ≤ 100
21 | CN(C)CCN(C)C(=N)c1ccc(-c2nc(CNC(=O)c3ccc(Cl)s3)co2)cc1 [Example 345, N-((2-(4-(N-(2-(Dimethylamino)ethyl)-N-methylcarbamimidoyl)phenyl)oxazol-4-yl)methyl)-5-chlorothiophene-2-carboxamide] | 100 to 500
22 | O=C(NCc1cc(-c2ccc(N3CCOCC3)cc2)no1)c1ccc(Cl)s1 [Example 257, 5-Chloro-thiophene-2-carboxylic acid [3-(4-morpholin-4-yl-phenyl)-isoxazol-5-ylmethyl]-amide] | ≥ 500
23 | CN(C)Cc1ccc(-c2cccc(-c3cc(CNC(=O)c4ccc(Cl)s4)on3)c2)cc1 [Example 272, 5-Chloro-thiophene-2-carboxylic acid [3-(4′-dimethylaminomethyl-biphenyl-3-yl)-isoxazol-5-ylmethyl]-amide] | ≥ 500
24 | CN(C)C(=N)c1ccc(-c2cncc(CNC(=O)c3ccc(Cl)s3)c2)cc1 [Example 369, N-((5-(4-(N,N-Dimethylcarbamimidoyl)phenyl)pyridin-3-yl)methyl)-5-chlorothiophene-2-carboxamide] | ≤ 100
25 | CN(C)C(=N)c1ccc(-c2cccc(CNC(=O)c3ccc(Cl)s3)c2)cc1 [Example 380, N-((3-(4-(N,N-Dimethylcarbamimidoyl)phenyl)phenyl)methyl)-5-chlorothiophene-2-carboxamide] | ≤ 100
26 | O=C(NCc1cn(-c2ccc(N3CCSCC3=O)cc2)nn1)c1ccc(Cl)s1 [Example 302, 5-Chloro-N-((1-(4-(3-oxothiomorpholino)phenyl)-1H-1,2,3-triazol-4-yl)methyl)thiophene-2-carboxamide] | ≤ 100
27 | O=C(NCC1CC(c2ccc(N3CCOCCC3=O)cc2F)=NO1)c1ccc(Cl)s1 (centres unmarked) [Example 249, 5-Chloro-thiophene-2-carboxylic acid {3-[2-fluoro-4-(5-oxo-[1,4]oxazepan-4-yl)-phenyl]-4,5-dihydro-isoxazol-5-ylmethyl}-amide] | ≥ 500
28 | N=C(c1ccc(-c2cc(CNC(=O)c3ccc(Cl)s3)on2)c(N2CCOCC2)c1)N1CCCCC1 [Example 101, 5-Chloro-thiophene-2-carboxylic acid {3-[4-(imino-piperidin-1-yl-methyl)-2-morpholin-4-yl-phenyl]-isoxazol-5-ylmethyl}-amide] | ≤ 100
29 | N=C(c1ccc(-n2cnc(CNC(=O)c3ccc(Cl)s3)c2)cc1)N1CCCC1 [Example 367, 5-Chloro-N-((1-(4-(imino(pyrrolidin-1-yl)methyl)phenyl)-1H-imidazol-4-yl)methyl)thiophene-2-carboxamide] | ≤ 100
30 | CC(NC(=O)c1ccc(Cl)s1)c1cc(-c2ccc(C(=N)N(C)C)cc2)no1 (stereo in doubt) [Example 53, (R)-5-Chloro-thiophene-2-carboxylic acid (1-{3-[4-(N,N-dimethyl-carbamimidoyl)-phenyl]-isoxazol-5-yl}-ethyl)-amide] | ≥ 500
31 | CN(C)C(=N)c1ccc(-n2cc(CNC(=O)c3ccc(Cl)s3)nn2)c(F)c1 [Example 320, N-((1-(4-(N,N-Dimethylcarbamimidoyl)-2-fluorophenyl)-1H-1,2,3-triazol-4-yl)methyl)-5-chlorothiophene-2-carboxamide] | ≤ 100
32 | CCCN(C)C(=N)c1ccc(-c2nc(CNC(=O)c3ccc(Cl)s3)co2)cc1 [Example 344, N-((2-(4-(N-Methyl-N-propylcarbamimidoyl)phenyl)oxazol-4-yl)methyl)-5-chlorothiophene-2-carboxamide] | 100 to 500
33 | N=C(c1ccc(-c2cc(CNC(=O)c3ccc(Cl)s3)no2)cc1)N1CCCC1 [Example 332, 5-Chloro-N-((5-(4-(imino(pyrrolidin-1-yl)methyl)phenyl)isoxazol-3-yl)methyl)thiophene-2-carboxamide] | ≤ 100
34 | CCN(C)C(=N)c1ccc(C2=NOC(C)(CNC(=O)c3ccc(Cl)s3)C2)cc1 (centres unmarked) [Example 64, 5-Chloro-thiophene-2-carboxylic acid {3-[4-(N-ethyl-N-methyl-carbamimidoyl)-phenyl]-5-methyl-4,5-dihydro-isoxazol-5-ylmethyl}-amide] | ≤ 100
35 | O=C(NCc1cc(-c2ccc(Cl)cc2)no1)c1ccc(Cl)s1 [Example 155, 5-Chloro-thiophene-2-carboxylic acid [3-(4-chloro-phenyl)-isoxazol-5-ylmethyl]-amide] | ≥ 500

Source: US8377974B2 (Millennium Pharmaceuticals, Inc., priority 2004, dated 2013)
